Experimental data reported in patent publication US11840531B2, “CDK8/19 inhibitors” (JOINT STOCK COMPANY “BIOCAD”, priority 2018, dated 2023).

Experiments:
[1] = Stability of the compounds in human blood plasma; assay type: in vitro ADME; settings: pooled human blood plasma, 10 μM, 4 hours at 37° C.
Experimental: To assess the blood plasma stability of the compounds, we used pooled human blood plasma taken from ten healthy donors. The initial candidate solution (10 mM in DMSO) was diluted with pooled blood plasma to a concentration of 10 μm (test solution). The test solution was incubated in a dry block thermostat for 4 hours at 37° C. HPLC with Agilent 1200 liquid chromatography system (Agilent, USA) was employed to determine peak areas of the compounds in test samples, said peak areas corresponding to the initial test time (prior to incubation) and the final test time (after incubation in a dry block thermostat for 4 hours at 37° C.), proteins were preliminarily precipitated with acetonitrile. Chromatographic analysis was performed in a gradient elution regime with a flow rate of 1 mL/min Substance amount in % in a sample after thermostatting was determined.
The stability of the compounds was estimated. The compounds described herein show at least 90% chemical stability, i.e. they are chemically stable in human blood plasma (Table 2).

[2] = Enzyme stability in human liver microsomes (Phase I); assay type: in vitro ADME; settings: pH 7.4; 0.5 mg/mL pooled human liver microsomes, 10 μM compound, 37° C.
Experimental: Measuring of enzyme stability of the present compounds enabled estimation of their stability towards the action of Phase I biotransformation enzymes.
The rate of enzymatic decomposition of a compound was detected by incubating the reaction mixture in a dry block heater at 37° C.; the reaction mixture contained 0.5 mg/mL of pooled human liver microsomes (XenoTech, USA, cat #H6010), 10 μM of a compound, 2 mM β-nicotinamide adenine dinucleotide (Carbosynth, UK, cat #NN10871) and 4 mM of magnesium chloride in 0.1M sodium phosphate buffer (pH=7.4). The reaction was quenched with acetonitrile (100 μL of acetonitrile/100 μL of the reaction mixture). After quenching, the samples were centrifuged at 10000 rpm for 10 minutes. Supernatant fluid was tested by chromatographic technique using Agilent1200 (Agilent, USA). Chromatographic analysis was performed in a gradient elution regime with a flow rate of 1 mL/min. A graph of the logarithm of substance's peak area as a function of time was made. The dependent factor of the line corresponded to the elimination rate constant K based on which the drug's half-lif½e T and degradation rate CLint were calculated:
Based on the data obtained, candidates' enzyme stability in human liver microsomes was determined.

[3] = Enzyme stability in human liver S9 fractions (Phase II); assay type: in vitro ADME; settings: pH 7.4; 0.5 mg/mL pooled human liver S9 fractions, 10 μM compound, 37° C.; read-out: Enzyme stability Liver S9 fraction CLint
Experimental: Measuring of enzyme stability of the present compounds enabled estimation of their stability towards the action of Phase II biotransformation enzymes.
Enzyme degradation rate was measured by incubating the reaction mixture in a dry block thermostat at 37° C., said reaction mixture comprising 0.5 mg/mL of pooled human liver S9 fractions (XenoTech, USA, cat #H0610), 10 μM compound, 2 mM β-nicotinamide adenine dinucleotide (Carbosynth, UK, cat #NN10871) and 4 mM magnesium chloride in 0, 1 M sodium-phosphate buffer, pH=7, 4. The reaction was quenched with acetonitrile (100 μL of acetonitrile/100 μL of the reaction mixture). After quenching, the samples were centrifuged at 10000 rpm for 10 minutes. Supernatant fluid was tested by chromatographic technique using Agilent1200 (Agilent, USA). Chromatographic analysis was performed in a gradient elution regime with a flow rate of 1 mL/min A graph of the logarithm of substance's peak area as a function of time was made. The dependent factor of the line corresponded to the elimination rate constant K based on which the drug's half-life T½ and degradation rate CLint were calculated:
Based on the data obtained, candidates' enzyme stability in human liver S9 fractions was determined.

KG-1 cells = experiment: Antiproliferative activity, KG-1 cells (AlamarBlue); assay type: cell-based; settings: Homo sapiens, KG-1, 120 h, 120 h incubation
Experimental: Antiproliferative activity of CDK8 inhibitors according to the present invention was measured in a cell-based test on continuous cell cultures MV4-11 (biphenotypic myelomonocytic leukemia, ATCC® CRL-9591™), KG-1 (acute myeloid leukemia, ATCC® CCL-246™) using a vital stain AlamarBlue (ThermoFisher, #DAL1100). The cells were grown in RPMI-1640 (PanEco, #C330p) medium with addition of 10% FBS (Gibco, #16140-071); washed and resuspended in culture medium with 10% FBS (Gibco, #16140-071) in 96-well culture plates (Corning, #3599) with ≈10×10^3 cells in […] of medium per well. The compounds in question were dissolved in DMSO and diluted with a medium with 10% FBS (Gibco, #16140-071) to a final concentration ranging from 0 to 100 μM. […] of diluted compounds were then added to each well (final DMSO concentration was less than 1%) and incubated under 5% CO2 atmosphere at 37° C. for 120 h. After incubating, 15 μL/well of AlamarBlue (ThermoFisher, #DAL1100) reagent was added, contents of plates were mixed in an orbital shaker (Biosan, Latvia) and further incubated for 3-5 h at 37° C. under 5% CO2 atmosphere. Number of living cells was estimated using a microplate spectrophotometer (Tecan Infinite M200Pro, Switzerland) measuring fluorescent signal at the excitation wavelength (λEx) of 540 nm and emission wavelength (λEm) of 590 nm.
IC50 values were calculated using Magellan 7.2 software (Tecan, Switzerland) approximating experimental points by four-parameter logistic model with the optimization by Levenberg-Marquardt (Table 6).

SMILES | Chemical stability in human blood plasma 4 h, % [1] [%] | microsomal CLint at 10 μM [2] [µL/min/mg] | microsomal CLint at 10 μM [3] [µL/min/mg] | IC50 (KG-1 cells) [nM]
COCCn1cc(-c2ccc(-c3cnc(N)c4ncc(C(=O)NCC5CC5)cc34)cc2)cn1 [Compound 3.45, 8-amino-N-(cyclopropylmethyl)-5-(4-(1-(2-methoxyethyl)-1H-pyrazole-4-yl)phenyl)-1,7-naphthyridine-3-carboxamide] | 91.2 | 39.6 | 1.1 | 0.1
CN(C)C(=O)Cn1cc(-c2ccc(-c3cnc(N)c4ncc(C(=O)N5CCC5)cc34)cc2)cn1 [Compound 3.52, 2-(4-(4-(8-amino-3-(azetidine-1-carbonyl)-1,7-naphthyridine-5-yl)phenyl)-1H-pyrazole-1-yl)-N,N-dimethylacetamide] | 100.0 | 7 | 2.4 | 1.2
COCCn1cc(-c2ccc(-c3cnc(N)c4ncc(C(=O)NC5CC5)cc34)cc2)cn1 [Compound 3.48] | 98.4 | 18 | 2.5 | 2.7
